Reference: patent US12187723B2 (BRISTOL-MYERS SQUIBB COMPANY, priority 2019, dated 2025)

Columns and labels:
human TLR7 = target: T1, human TLR7 (Homo sapiens, UniProt Q9NYK1); test: TLR7 inhibition reporter assay (HEK-Blue SEAP); type: cell-based; details: HEK-Blue cells overexpressing human TLR7, gardiquimod 7.5 μM, 22 hour incubation
T1 construct: host or cells: HEK-Blue cells
T1 sequence (Q9NYK1 27-1049): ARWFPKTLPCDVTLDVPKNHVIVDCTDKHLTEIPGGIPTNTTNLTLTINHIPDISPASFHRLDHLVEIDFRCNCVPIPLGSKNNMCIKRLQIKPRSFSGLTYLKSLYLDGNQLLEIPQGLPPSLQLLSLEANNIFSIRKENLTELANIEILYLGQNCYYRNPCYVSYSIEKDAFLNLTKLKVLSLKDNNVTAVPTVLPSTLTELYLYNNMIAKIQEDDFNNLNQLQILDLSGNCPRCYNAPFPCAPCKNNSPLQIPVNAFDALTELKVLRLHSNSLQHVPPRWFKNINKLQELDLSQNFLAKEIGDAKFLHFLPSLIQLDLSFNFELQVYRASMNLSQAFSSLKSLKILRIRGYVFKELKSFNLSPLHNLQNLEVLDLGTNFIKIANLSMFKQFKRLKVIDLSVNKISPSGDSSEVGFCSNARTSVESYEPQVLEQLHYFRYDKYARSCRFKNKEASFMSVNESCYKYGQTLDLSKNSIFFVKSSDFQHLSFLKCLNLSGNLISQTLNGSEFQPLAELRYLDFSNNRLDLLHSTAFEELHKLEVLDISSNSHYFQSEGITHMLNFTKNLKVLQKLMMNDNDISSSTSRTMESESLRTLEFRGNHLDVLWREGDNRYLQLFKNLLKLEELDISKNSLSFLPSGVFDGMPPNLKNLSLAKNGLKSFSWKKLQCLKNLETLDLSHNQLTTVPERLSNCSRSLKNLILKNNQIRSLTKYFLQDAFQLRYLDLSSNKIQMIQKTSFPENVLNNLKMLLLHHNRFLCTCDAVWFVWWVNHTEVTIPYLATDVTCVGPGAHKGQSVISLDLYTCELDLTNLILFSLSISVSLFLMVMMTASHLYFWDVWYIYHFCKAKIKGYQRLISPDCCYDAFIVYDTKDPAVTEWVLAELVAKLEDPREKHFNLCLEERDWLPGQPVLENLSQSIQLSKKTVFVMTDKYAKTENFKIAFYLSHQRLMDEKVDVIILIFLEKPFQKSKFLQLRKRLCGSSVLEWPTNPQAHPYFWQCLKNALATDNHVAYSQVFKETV
Description: (§1) TLR7/8/9 Inhibition Reporter Assays
Briefly, cells are seeded into Greiner 384 well plates (15000 cells per well for TLR7, 20,000 for TLR8 and 25,000 for TLR9) and then treated with test compounds in DMSO to yield a final dose response concentration range of 0.05 nM-50 μM. […] After a 22 hour incubation at 37° C., 5% CO2, SEAP levels are determined with the addition of HEK-Blue™ Detection reagent (Invivogen), a cell culture medium that allows for detection of SEAP, according to manufacturer's specifications. The percent inhibition is determined as the % reduction in the HEK-Blue signal present in wells treated with agonist plus DMSO alone compared to wells treated with a known inhibitor.

human TLR9 = target: T2, human TLR9 (Homo sapiens, UniProt Q9NR96); test: TLR9 inhibition reporter assay (HEK-Blue SEAP); type: cell-based; details: HEK-Blue cells overexpressing human TLR9, ODN2006 5 nM, 22 hour incubation
T2 construct: host or cells: HEK-Blue cells
T2 sequence (Q9NR96 26-1032): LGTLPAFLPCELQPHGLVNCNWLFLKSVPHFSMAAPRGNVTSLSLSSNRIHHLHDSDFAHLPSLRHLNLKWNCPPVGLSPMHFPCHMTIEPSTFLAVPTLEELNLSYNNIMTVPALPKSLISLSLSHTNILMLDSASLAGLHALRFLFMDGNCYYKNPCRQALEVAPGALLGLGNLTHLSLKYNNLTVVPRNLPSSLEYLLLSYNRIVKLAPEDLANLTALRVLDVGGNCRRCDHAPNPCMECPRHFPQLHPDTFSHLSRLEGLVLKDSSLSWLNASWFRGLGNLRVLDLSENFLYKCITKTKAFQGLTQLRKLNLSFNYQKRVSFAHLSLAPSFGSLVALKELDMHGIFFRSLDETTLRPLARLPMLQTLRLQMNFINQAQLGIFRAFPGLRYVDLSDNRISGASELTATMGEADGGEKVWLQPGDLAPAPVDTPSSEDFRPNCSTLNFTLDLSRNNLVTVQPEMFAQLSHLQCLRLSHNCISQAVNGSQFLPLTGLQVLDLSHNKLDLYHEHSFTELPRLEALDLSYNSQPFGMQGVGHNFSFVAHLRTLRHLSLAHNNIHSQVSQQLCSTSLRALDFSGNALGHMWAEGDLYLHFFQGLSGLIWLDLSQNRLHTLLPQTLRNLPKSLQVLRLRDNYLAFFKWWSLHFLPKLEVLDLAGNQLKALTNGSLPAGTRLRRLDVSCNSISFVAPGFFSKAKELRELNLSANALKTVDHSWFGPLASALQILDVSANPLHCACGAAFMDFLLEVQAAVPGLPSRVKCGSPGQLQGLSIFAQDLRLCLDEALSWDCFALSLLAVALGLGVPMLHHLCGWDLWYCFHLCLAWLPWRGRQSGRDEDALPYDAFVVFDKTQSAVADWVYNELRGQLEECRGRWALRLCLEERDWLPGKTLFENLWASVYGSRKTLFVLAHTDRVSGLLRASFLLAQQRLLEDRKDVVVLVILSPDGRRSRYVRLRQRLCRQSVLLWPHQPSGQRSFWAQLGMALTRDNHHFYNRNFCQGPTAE
Description: as §1
HEK-Blue™-cells (Invivogen) overexpressing human TLR7, TLR8 or TLR9 receptors were used for screening inhibitors of these receptors using an inducible SEAP (secreted embryonic alkaline phosphatase) reporter gene under the control of the IFN-β minimal promoter fused to five NF-κB and AP-1-binding sites. Briefly, cells are seeded into Greiner 384 well plates (15000 cells per well for TLR7, 20,000 for TLR8 and 25,000 for TLR9) and then treated with test compounds in DMSO to yield a final dose response concentration range of 0.05 nM-50 μM. After a 30 minute compound pre-treatment at room temperature, the cells are then stimulated with a TLR7 ligand (gardiquimod at a final concentration of 7.5 μM), TLR8 ligand (R848 at a final concentration of 15.9 μM) or TLR9 ligand (ODN2006 at a final concentration of 5 nM) to activate NF-κB and AP-1 which induce the production of SEAP. After a 22 hour incubation at 37° C., 5% CO2, SEAP levels are determined with the addition of HEK-Blue™ Detection reagent (Invivogen), a cell culture medium that allows for detection of SEAP, according to manufacturer's specifications. The percent inhibition is determined as the % reduction in the HEK-Blue signal present in wells treated with agonist plus DMSO alone compared to wells treated with a known inhibitor.

SMILES | IC50 (human TLR7) [nM] | IC50 (human TLR9) [nM]
COc1cc(-c2cc3[nH]c(=O)n([C@@H]4CCCN(CC(C)(C)C)C4)c3cc2C(F)(F)F)cn2ncnc12 [Example 116, (R)-5-(8-methoxy-[1,2,4]triazolo[1,5-a]pyridin-6-yl)-1-(1-neopentylpiperidin-3-yl)-6-(trifluoromethyl)-1,3-dihydro-2H-benzo[d]imidazol-2-one] | 44.1 | 34200
COc1cc(-c2cc3[nH]c(=O)n(C4CCN(CC5CCOCC5)CC4)c3cc2C(C)C)cn2ncnc12 [Example 159, 6-isopropyl-5-(8-methoxy-[1,2,4]triazolo[1,5-a]pyridin-6-yl)-1-(1-((tetrahydro-2H-pyran-4-yl)methyl)piperidin-4-yl)-1,3-dihydro-2H-benzo[d]imidazol-2-one] | 7.23 | 7250
COc1cc(-c2cc3[nH]c(=O)n([C@H]4CCCN(C)C4)c3cc2C(C)C)cn2ncnc12 [Example 119, (S)-6-isopropyl-5-(8-methoxy-[1,2,4]triazolo[1,5-a]pyridin-6-yl)-1-(1-methylpiperidin-3-yl)-1,3-dihydro-2H-benzo[d]imidazol-2-one] | 31.8 | 26300
COc1cc(-c2cc3[nH]c(=O)n(C4CCN(C5COC5)CC4)c3cc2C(C)C)cn2ncnc12 [Example 157, 6-isopropyl-5-(8-methoxy-[1,2,4]triazolo[1,5-a]pyridin-6-yl)-1-(1-(oxetan-3-yl)piperidin-4-yl)-1,3-dihydro-2H-benzo[d]imidazol-2-one] | 76.8 | > 50000
CCN1CCC[C@@H](n2c(=O)[nH]c3cc(-c4cc(OC)c5ncnn5c4)c(C(C)C)cc32)C1 [Example 138, (R)-1-(1-ethylpiperidin-3-yl)-6-isopropyl-5-(8-methoxy-[1,2,4]triazolo[1,5-a]pyridin-6-yl)-1,3-dihydro-2H-benzo[d]imidazol-2-one] | 2.73 | 17900
CCC(CC)CN1CCC(n2c(=O)[nH]c3cc(-c4cc(OC)c5ncnn5c4)c(C(C)C)cc32)CC1 [Example 165, 1-(1-(2-ethylbutyl)piperidin-4-yl)-6-isopropyl-5-(8-methoxy-[1,2,4]triazolo[1,5-a]pyridin-6-yl)-1,3-dihydro-2H-benzo[d]imidazol-2-one] | 10.9 | 8720

Further compounds by falling IC50 (human TLR7), results first:

IC50 (human TLR7) [nM] | IC50 (human TLR9) [nM] | SMILES
704 | > 50000 | Cc1cc2c(cc1-c1cc(C)c3ncnn3c1)[nH]c(=O)n2[C@@H]1CCCN(CC(N)=O)C1 [Example 94, (R)-2-(3-(6-methyl-5-(8-methyl-[1,2,4]triazolo[1,5-a]pyridin-6-yl)-2-oxo-2,3-dihydro-1H-benzo[d]imidazol-1-yl)piperidin-1-yl)acetamide]
81.8 | 27800 | COc1cc(-c2cc3[nH]c(=O)n([C@H]4CCCN(CC5CCOC5)C4)c3cc2C(C)C)cn2ncnc12 (stereo partly drawn) [Example 126, 6-isopropyl-5-(8-methoxy-[1,2,4]triazolo[1,5-a]pyridin-6-yl)-1-((3S)-1-((tetrahydrofuran-3-yl)methyl)piperidin-3-yl)-1,3-dihydro-2H-benzo[d]imidazol-2-one]
71 | 1450 | Cc1cc2c(cc1-c1cc(C)c3ncnn3c1)[nH]c(=O)n2[C@@H]1CCCN(C(=O)CN(C)C)C1 [Example 104, (R)-1-(1-(dimethylglycyl)piperidin-3-yl)-6-methyl-5-(8-methyl-[1,2,4]triazolo[1,5-a]pyridin-6-yl)-1,3-dihydro-2H-benzo[d]imidazol-2-one]
66.1 | 8640 | Cc1cc2c(cc1-c1cc(C)c3ncnn3c1)[nH]c(=O)n2[C@@H]1CCCN(CC#N)C1 [Example 96, (R)-2-(3-(6-methyl-5-(8-methyl-[1,2,4]triazolo[1,5-a]pyridin-6-yl)-2-oxo-2,3-dihydro-1H-benzo[d]imidazol-1-yl)piperidin-1-yl)acetonitrile]
38.8 | 19100 | COCCN1CCC[C@@H](n2c(=O)[nH]c3cc(-c4cc(C)c5ncnn5c4)c(C)cc32)C1 [Example 97, (R)-1-(1-(2-methoxyethyl)piperidin-3-yl)-6-methyl-5-(8-methyl-[1,2,4]triazolo[1,5-a]pyridin-6-yl)-1,3-dihydro-2H-benzo[d]imidazol-2-one]
18.3 | 11000 | COc1cc(-c2cc3[nH]c(=O)n([C@H]4CCCN(CCC(C)C)C4)c3cc2C(C)C)cn2ncnc12 [Example 132, (S)-1-(1-isopentylpiperidin-3-yl)-6-isopropyl-5-(8-methoxy-[1,2,4]triazolo[1,5-a]pyridin-6-yl)-1,3-dihydro-2H-benzo[d]imidazol-2-one]
12.3 | 17200 | COc1cc(-c2cc3[nH]c(=O)n(C4CCN(CC(C)C)CC4)c3cc2C(C)C)cn2ncnc12 [Example 164, 1-(1-isobutylpiperidin-4-yl)-6-isopropyl-5-(8-methoxy-[1,2,4]triazolo[1,5-a]pyridin-6-yl)-1,3-dihydro-2H-benzo[d]imidazol-2-one]
5.52 | 11900 | CCCN1CCC[C@@H](n2c(=O)[nH]c3cc(-c4cn5ncnc5c(C)c4C)c(C(C)C)cc32)C1 [Example 150, (R)-5-(7,8-dimethyl-[1,2,4]triazolo[1,5-a]pyridin-6-yl)-6-isopropyl-1-(1-propylpiperidin-3-yl)-1,3-dihydro-2H-benzo[d]imidazol-2-one]
3.97 | 15700 | Cc1c(-c2cc3[nH]c(=O)n([C@@H]4CCCN(CC5CCOCC5)C4)c3cc2C(C)C)cn2ncnc2c1C [Example 149, (R)-5-(7,8-dimethyl-[1,2,4]triazolo[1,5-a]pyridin-6-yl)-6-isopropyl-1-(1-((tetrahydro-2H-pyran-4-yl)methyl)piperidin-3-yl)-1,3-dihydro-2H-benzo[d]imidazol-2-one]
